The target in data set [1] is T1, rat GluN1-4a/GluN3B receptors (Rattus norvegicus, UniProt P35439+Q8VHN2).
T1 construct: Human GluN3A (NP_597702.2) and rat GluN3B (NP_579842.2) were synthesized and subcloned into SP6 plasmids; expressed in transfected cells; host or cells: Xenopus laevis oocytes, cRNA injection
In words: Two-electrode voltage-clamp recordings of GluN1-4a/GluN3B receptors in the presence of CGP-78608 (Xenopus oocytes). It is filed as cell-based. As to conditions: pH 7.4; 0.5 μM CGP-78608; read-out: EC50, (95% CI) GluN1/GluN3B + CGP. An excerpt: (§1) cDNA encoding human wild-type (WT) GluN1-1a (GenBank accession numbers NP_015566, hereafter GluN1) and rat GluN1-1a (NP_058706.1) were synthesized and subcloned into pGEMHE plasmid; some experiments used the rat splice variant GluN1-4a (NP_001257531.1). Human GluN3A (NP_597702.2) and rat GluN3B (NP_579842.2) were synthesized and subcloned into SP6 plasmids. For most experiments, human GluN1 was co-expressed with human GluN3A, except for mutagenesis experiments where rat GluN1 was co-expressed with human GluN3A. Rat GluN1-4a was always expressed with rat GluN3B.
(§2) Defolliculated Xenopus laevis oocytes (stage V-VI) were obtained from Ecocyte BioScience (Austin, Texas), or prepared from commercially available Xenopus ovaries (Xenopus 1, Dexter, MI) as previously described (Hansen, et al., Mol. Pharmacol., 2013). A Drummond Nanoject II (Broomall, PA) was used to inject oocytes with cRNAs encoding GluN1 and GluN3 at a 1:3 ratio in RNase-free water. The cRNA was diluted as needed to give responses with amplitudes ranging between 200-2000 nA (0.2-10 ng total cRNA). Following cRNA injection, the oocytes were stored at 15-19° C. in Barth's solution that contained (in mM) 88 NaCl, 2.4 NaHCO3, 1 KCl, 0.33 Ca(NO3)2, 0.41 CaCl2), 0.82 MgSO4, and 5 Tris-HCl (pH 7.4 with NaOH), supplemented with 1 μg/ml streptomycin (Invitrogen, Carlsbad, CA) and 100 μg/ml gentamicin (Fisher Scientific, Pittsburgh, PA). Recordings were performed 2-5 days following cRNA microinjection at room temperature (23° C.) using a two-electrode voltage-clamp amplifier (OC725, Warner Instrument, Hamilton, CT). The signal was low-pass filtered at 10-20 Hz (4-pole, −3 dB Bessel) and digitized at the Nyquist rate using PCI-6025E or USB-6212 BNC data acquisition boards (National Instruments, Austin, TX) using EasyOocyte (http://www.easyoocyte.io/). Oocytes were placed in a custom-made chamber and continuously perfused (2.5 ml/min) with oocyte recording solution containing (in mM) 90 NaCl, 1 KCl, 10 HEPES, 0.5-1.0 BaCl2, and 0.01 EDTA (pH 7.4 with NaOH). Solutions were applied by gravity, and solution exchange was controlled through a rotary valve (Hamilton, Reno, NV). Recording electrodes were filled with 0.3-3.0 M KCl, and current responses were recorded at a holding potential of −40 mV.
(§3) Response (%)=(100−minimum)/(1+([concentration]/IC50)^nH)+minimum (2) • where nH is the Hill slope, IC50 is the concentration that produces a half-maximal effect, and minimum is the degree of residual inhibition at a saturating concentration of the negative allosteric modulator.
(§4) Selected compounds were also screened in the same assay as EU1180-438 to determine their effect on GluN3B.
For orientation: Two-electrode voltage clamp holds a large cell at a set potential and records current.

Data set [2] concerns the target T2, rat GluN1-4a/GluN3B receptors (Rattus norvegicus, UniProt Q8VHN2).
T2 construct: Human GluN3A (NP_597702.2) and rat GluN3B (NP_579842.2) were synthesized and subcloned into SP6 plasmids; expressed in transfected cells; host or cells: Xenopus laevis oocytes, cRNA injection
The description is as above. The format is cell-based.
Excerpt: as §1, §2, §3, §4

The target in data set [3] is T3, rat GluN1-4a^FA,TL/GluN3B receptors (Rattus norvegicus, UniProt Q8VHN2).
T3 construct: Human GluN3A (NP_597702.2) and rat GluN3B (NP_579842.2) were synthesized and subcloned into SP6 plasmids; expressed in transfected cells; host or cells: Xenopus laevis oocytes, cRNA injection
T3 sequence (Q8VHN2 25-1002, other chains not shown): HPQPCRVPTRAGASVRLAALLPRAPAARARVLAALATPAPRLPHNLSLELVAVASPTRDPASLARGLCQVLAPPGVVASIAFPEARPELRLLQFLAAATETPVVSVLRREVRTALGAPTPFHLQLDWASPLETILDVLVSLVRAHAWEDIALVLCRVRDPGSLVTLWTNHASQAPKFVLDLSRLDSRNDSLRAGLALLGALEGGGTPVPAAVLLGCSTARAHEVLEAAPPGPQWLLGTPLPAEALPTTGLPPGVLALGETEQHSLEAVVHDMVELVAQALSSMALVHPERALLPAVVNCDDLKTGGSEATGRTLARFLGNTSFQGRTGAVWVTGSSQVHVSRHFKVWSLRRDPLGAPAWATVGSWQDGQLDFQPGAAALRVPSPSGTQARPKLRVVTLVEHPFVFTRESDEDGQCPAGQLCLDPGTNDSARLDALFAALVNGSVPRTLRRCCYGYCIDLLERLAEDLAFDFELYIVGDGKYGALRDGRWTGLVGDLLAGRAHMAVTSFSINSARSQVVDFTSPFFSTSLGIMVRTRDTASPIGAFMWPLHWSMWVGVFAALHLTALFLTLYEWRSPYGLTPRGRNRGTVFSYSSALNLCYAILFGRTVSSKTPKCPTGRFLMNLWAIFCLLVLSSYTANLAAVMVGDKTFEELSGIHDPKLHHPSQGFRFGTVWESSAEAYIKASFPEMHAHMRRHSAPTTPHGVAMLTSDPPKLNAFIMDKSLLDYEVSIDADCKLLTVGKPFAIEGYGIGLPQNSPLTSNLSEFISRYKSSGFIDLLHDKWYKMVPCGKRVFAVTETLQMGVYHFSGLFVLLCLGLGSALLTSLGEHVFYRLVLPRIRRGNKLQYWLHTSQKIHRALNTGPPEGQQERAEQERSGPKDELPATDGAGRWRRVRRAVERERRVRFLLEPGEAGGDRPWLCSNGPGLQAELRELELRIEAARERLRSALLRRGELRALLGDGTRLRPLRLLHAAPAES
In words: Two-electrode voltage-clamp recordings of GluN1-4a^FA,TL/GluN3B receptors (Xenopus oocytes). The format is cell-based.
Excerpt: as §1
Defolliculated Xenopus laevis oocytes (stage V-VI) were obtained from Ecocyte BioScience (Austin, Texas), or prepared from commercially available Xenopus ovaries (Xenopus 1, Dexter, MI) as previously described (Hansen, et al., Mol. Pharmacol., 2013). A Drummond Nanoject II (Broomall, PA) was used to inject oocytes with cRNAs encoding GluN1 and GluN3 at a 1:3 ratio in RNase-free water. The cRNA was diluted as needed to give responses with amplitudes ranging between 200-2000 nA (0.2-10 ng total cRNA). […] Recording electrodes were filled with 0.3-3.0 M KCl, and current responses were recorded at a holding potential of −40 mV. […]

Data set [4] has as its system GluN1/GluN2 NMDA receptors (GluN2A, GluN2B, GluN2C, GluN2D). Nature of the data set: Recombinant GluN1/GluN2 NMDA receptors in Xenopus oocytes (selectivity). It is filed as cell-based, rat.
A further data set has as its system GluA1-4 AMPA receptors. Nature of the data set: AMPA receptors in Xenopus oocytes (selectivity). It is filed as cell-based, rat, human. Particulars: 20 μM.
A further data set relates to nicotinic receptors. Nature of the data set: Nicotinic acetylcholine receptors in Xenopus oocytes (selectivity). As to conditions: 20 μM. The format is cell-based, rat. As to the method:
The numbers of oocytes recorded are in parentheses.
The cDNA was linearized by restriction enzymes (Thermo Fisher Scientific, Lithuania), and the cRNA encoding the receptor subunits was synthesized from the linear template cDNA using the mMESSAGE mMACHINE kit (Invitrogen/Thermo Fisher Scientific, Lithuania). The α1β1δγ nAChR subunits were injected at a 1:1:1:1 ratio while α4 […] nAChR subunits were injected at a 1:1 ratio. The cDNAs encoding GABA and glycine subunits were provided by Dr. D. Weiss (University of Texas Health Science Center at San Antonio). The cDNAs encoding nAChR subunits were provided by Drs. R. Papke (University of Florida) and S. Heinemann (Salk Institute). The cDNA encoding the purinergic receptor was provided by Dr. R. Hume (University of Michigan).
Responses in the presence of EU1180-438 were expressed as a percent of control calculated as the average of the responses before and after EU1180-438 exposure. […]
Defolliculated Xenopus laevis oocytes (stage V-VI) were obtained from Ecocyte BioScience (Austin, Texas), or prepared from commercially available Xenopus ovaries (Xenopus 1, Dexter, MI) as previously described (Hansen, et al., Mol. Pharmacol., 2013). […] Recording electrodes were filled with 0.3-3.0 M KCl, and current responses were recorded at a holding potential of −40 mV.

The target of data set [5] is native GluN1/GluN3A receptors (Mus musculus, UniProt A2AIR5). Nature of the data set: Whole-cell patch-clamp of glycine-activated responses in hippocampal CA1 pyramidal cells, acute brain slices. Particulars: 30 μM; 1 μM CGP-78608; 10 mM glycine puffs. The format is cell-based. On the technique in general: In patch-clamp work, channel activity is measured electrically.
native GluN1/GluN3A receptors, sequence (A2AIR5 27-1135, other chains not shown): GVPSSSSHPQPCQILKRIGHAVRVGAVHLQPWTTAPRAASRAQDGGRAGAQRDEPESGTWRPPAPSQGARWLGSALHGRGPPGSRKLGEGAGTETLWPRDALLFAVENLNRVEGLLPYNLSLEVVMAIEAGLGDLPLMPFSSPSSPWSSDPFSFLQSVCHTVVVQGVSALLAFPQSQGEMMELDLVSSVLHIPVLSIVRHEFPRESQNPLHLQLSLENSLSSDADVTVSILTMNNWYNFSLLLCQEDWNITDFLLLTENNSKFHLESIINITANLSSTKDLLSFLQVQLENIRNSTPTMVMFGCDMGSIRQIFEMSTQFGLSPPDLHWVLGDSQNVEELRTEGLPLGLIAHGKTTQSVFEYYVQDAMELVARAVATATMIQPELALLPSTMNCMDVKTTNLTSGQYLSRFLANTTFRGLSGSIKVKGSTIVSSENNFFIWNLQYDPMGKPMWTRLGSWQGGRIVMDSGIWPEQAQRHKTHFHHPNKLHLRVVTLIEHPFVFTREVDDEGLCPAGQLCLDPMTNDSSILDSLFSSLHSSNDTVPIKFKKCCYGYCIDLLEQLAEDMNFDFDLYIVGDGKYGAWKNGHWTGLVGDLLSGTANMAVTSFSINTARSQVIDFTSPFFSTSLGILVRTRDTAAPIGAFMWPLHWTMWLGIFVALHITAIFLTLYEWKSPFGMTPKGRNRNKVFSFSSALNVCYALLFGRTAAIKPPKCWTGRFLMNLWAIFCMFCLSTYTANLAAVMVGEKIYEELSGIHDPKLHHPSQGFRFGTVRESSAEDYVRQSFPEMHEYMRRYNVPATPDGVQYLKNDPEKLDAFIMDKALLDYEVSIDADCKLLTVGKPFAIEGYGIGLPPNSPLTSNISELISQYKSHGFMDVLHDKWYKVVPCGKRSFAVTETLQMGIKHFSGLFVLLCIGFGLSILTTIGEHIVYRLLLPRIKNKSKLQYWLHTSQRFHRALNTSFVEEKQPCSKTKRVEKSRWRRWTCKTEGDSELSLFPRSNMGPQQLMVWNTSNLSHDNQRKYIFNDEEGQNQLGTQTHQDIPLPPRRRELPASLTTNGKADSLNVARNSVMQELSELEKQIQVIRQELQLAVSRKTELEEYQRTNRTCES

The nature of data set [6]: Maximum solubility by nephelometry. The format is physicochemical. Particulars: aqueous buffer, kinetic from dmso stock; oocyte recording buffer (pH 7.4). As to the method: The maximum solubility for the synthesized compounds was determined using a BMG Labtech Nephelostar™ nephelometer according to the manufacturer's instructions. For example, EU1180-438 was taken up in DMSO to prepare a 10 mM stock solution. The 10 mM solution was serially diluted into eleven concentrations (10, 5, 2.5, 1.25, 0.625, 0.3125, 0.1563, 0.0781, 0.0391, 0.0193, and 0.0098 mM) at the top of a clear-bottom 96-well plate. These were then each distributed into the subsequent 7 wells in 2.5 μL increments and diluted 100-fold (2.5 μL to 250 μL) with oocyte recording buffer (pH 7.4) into concentrations of 100, 50, 25, 12.5, 6.25, 3.125, 1.563, 0.781 0.391, 0.193, and 0.098 μM. The 96-well plate was shaken gently for 90 minutes before analysis.

[7] abbreviates: 500 nM CGP-78608 plus 100 μM glycine.

Data on 1 compound can be found in patent publication US20230339854A1, “Negative Allosteric Modulation of GluN3-Containing N-Methyl-D-Aspartate Receptors” (Emory University, priority 2020, published 2023).

Each structure is given as a SMILES string. Converted amounts (≈) assume the structure as drawn. “Also recorded” adds a separate entry of the source.

T2 sequence (Q8VHN2 25-1002, other chains not shown): as the sequence (Q8VHN2 25-1002, other chains not shown) above
T1 sequence (Q8VHN2 25-1002, other chains not shown): as above

Consider `COc1ccc(OCC(c2ccc(OC)cc2)N2Cc3ccccc3C2=O)cc1` (racemic) [EU1180-438, 2-(2-(4-methoxyphenoxy)-1-(4-methoxyphenyl)ethyl)isoindolin-1-one], for which, in data set [1], the EC50 is 2.2 µM. Besides, in data set [2] (500 nM CGP-78608), the maximal inhibition is 93%. Also, in data set [2] (setting [7]), the Slope was 1.5 and the minimum was found to be 7%. For the same compound, the “% Inhibition GluN1/GluN3B + CGP” value in data set [2] (fitted maximum at saturating test compound, pH 7.4, 0.5 μM CGP-78608) is 93%, (n = 8). Moreover, in data set [3], the IC50 (as a rule, the concentration at which inhibition is half-maximal) amounted to 5.2 µM and the inhibition (as a rule, the change of the read-out against control, counted positive when it falls) at saturating concentrations stood at 82%. For the same compound, in data set [4], the “activity toward recombinant GluN1/GluN2 NMDA receptors (GluN2A-D)” value was “no detectable activity”. The “activity at GluN1/GluN2 NMDA receptors” value in data set [4] (20 μM, rat GluN1-1a/GluN2A-D) is on record as “virtually no activity”. Further, in the data set on GluA1-4 AMPA receptors, the “activity at GluA1-4 AMPA receptors” value is on record as “virtually no activity”. Moreover, the “activity at nicotinic receptors” value in the data set with nicotinic receptors is reported as “inhibited some, but not all, nicotinic receptors”. Further, the “effect on glycine-activated responses from native GluN1/GluN3A receptors” value in data set [5] is “strong inhibition; also recorded: inhibited significantly”. Further, the solubility – broadly, the dissolved amount per volume that the medium holds – at 90 min in data set [6] was found to be 37 µM (≈ 14.4 µg/mL).
